Target: human recombinant H-PGDS (Homo sapiens, UniProt O60760)
Assay: Fluorescence intensity h-PGDS TBA enzyme assay
Assay type: biochemical
Conditions: Examples up to 622 (and 3a, 3b)

Sequence of human recombinant H-PGDS (O60760 whole entry): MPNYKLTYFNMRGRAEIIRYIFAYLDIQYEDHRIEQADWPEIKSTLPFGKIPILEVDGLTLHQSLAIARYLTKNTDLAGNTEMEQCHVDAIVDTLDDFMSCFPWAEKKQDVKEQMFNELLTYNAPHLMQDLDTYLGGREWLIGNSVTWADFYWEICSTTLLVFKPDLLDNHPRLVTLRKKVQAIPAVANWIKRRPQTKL

SMILES | IC50 [nM]
CCOC(=O)N1CCC(NC(=O)c2ccc(-c3cccc(OC)c3)nc2)CC1 [Example 18, Ethyl 4-({[6-(3-methoxyphenyl)pyridin-3-yl]carbonyl}amino)piperidine-1-carboxylate] | 3.94
COC(=O)c1ccc2c(CN3CCC(NC(=O)c4ccc(-c5cccc(F)c5)nc4)CC3)c[nH]c2c1 [Example 265, Methyl 3-{[4-({[6-(3-fluorophenyl)pyridin-3-yl]carbonyl}amino)piperidin-1-yl]methyl}-1H-indole-6-carboxylate] | 4.29
Cc1ccc(-c2nc(CN3CCC(NC(=O)c4ccc(-c5cccc(F)c5)nc4)CC3)n(C)n2)nn1 [Example 477, 6-(3-Fluorophenyl)-N-(1-{[1-methyl-3-(6-methylpyridazin-3-yl)-1H-1,2,4-triazol-5-yl]methyl}piperidin-4-yl)nicotinamide] | 4.04
CC(=O)N1CCC(NC(=O)c2ccc(-c3cccc(F)c3)nc2)C(c2ccc(F)cc2)C1 (centres unmarked) [Example 526] | 76.3
CC(C)(O)c1ccc(CN2CCC(NC(=O)c3ccc(-c4cccc(F)c4)nc3)CC2)c(F)c1 [Example 419, N-[1-(2-Fluoro-4-(1-hydroxy-1-methylethyl)benzyl]piperidin-4-yl}-6-(3-fluorophenyl)nicotinamide] | 1.03
O=C(NC1CCN(Cc2cc(F)cc3c2OCOC3)CC1)c1ccc(-c2cccc(F)c2)nc1 [Example 370, N-{1-[(6-Fluoro-4H-1,3-benzodioxin-8-yl)methyl]piperidin-4-yl}-6-(3-fluorophenyl)nicotinamide] | 0.456
CCNC(=O)c1ccc(N2CCC(NC(=O)c3ccc(-c4cccc(F)c4)nc3)CC2)nn1 [Example 83, N-Ethyl-6-[4-({[6-(3-fluorophenyl)pyridin-3-yl]carbonyl}amino)piperidin-1-yl]pyridazine-3-carboxamide] | 0.37
CCc1csc(CN2CCC(NC(=O)c3ccc(-c4cccc(F)c4)nc3)CC2)n1 [Example 411, N-{1-[(4-Ethyl-1,3-thiazol-2-yl)methyl]piperidin-4-yl}-6-(3-fluorophenyl)nicotinamide] | 1.36
COCCN1CCC(N2CCC(NC(=O)c3ccc(-c4cccc(F)c4)nc3)CC2)CCC1=O (centres unmarked) [Example 539, 6-(3-Fluorophenyl)-N-{1-[1-(2-methoxyethyl)-7-oxoazepan-4-yl]piperidin-4-yl}nicotinamide] | 2.71
CC(C)n1nnnc1N1CCC(NC(=O)c2ccc(-c3cccc(F)c3)nc2)CC1 [Example 97, 6-(3-Fluorophenyl)-N-[1-(1-isopropyl-1H-tetrazol-5-yl)piperidin-4-yl]nicotinamide] | 0.319
Nc1cc(N2CCC(NC(=O)c3ccc(-c4cccc(F)c4)nc3)CC2)ncn1 [Example 151, N-[1-(6-Aminopyrmidin-4-yl)piperidin-4-yl]-6-(3-fluorophenyl)nicotinamide] | 0.519
Cc1cc(CN2CCC(NC(=O)c3ccc(-c4cccc(F)c4)nc3)CC2)n(C)n1 [Example 372, N-{1-[(1,3-Dimethyl-1H-pyrazol-5-yl)methyl]piperidin-4-yl}-6-(3-fluorophenyl)nicotinamide] | 0.981
O=C(NC1CCN(CC2CCOC2)CC1)c1ccc(-c2cccc(F)c2)nc1 (centres unmarked) [Example 350, 6-(3-Fluorophenyl)-N-[1-(tetrahydrofuran-3-ylmethyl)piperidin-4-yl]nicotinamide] | 0.247
O=C(NC1CCN(Cc2cccc(Cl)c2)CC1)c1ccc(-c2cccc(F)c2)nc1 [Example 233, N-[1-(3-Chlorobenzyl)piperidin-4-yl]-6-(3-fluorophenyl)nicotinamide] | 0.352
O=C(NC1CCN(CC(F)(F)F)CC1)c1ccc(-c2ccc(F)cc2)nc1 [Example 9, 6-(4-Fluorophenyl)-N-(1-(2,2,2-trifluoroethyl)piperidin-4-yl)nicotinamide] | 23.6
O=C(NC1CCN(Cc2ccccc2)CC1)c1ccc(-c2ccccc2)nc1 [Example 8, N-(1-Benzylpiperidin-4-yl)-6-phenylnicotinamide] | 1.57
Cc1csc2c(N3CCC(NC(=O)c4ccc(-c5cccc(F)c5)nc4)CC3)ncnc12 [Example 71, 6-(3-Fluorophenyl)-N-[1-(7-methylthieno[3,2-d]pyrimidin-4-yl)piperidin-4-yl]nicotinamide] | 2.18
CCc1cn2nc(N3CC(NC(=O)c4ccc(-c5cccc(F)c5)nc4)C3)ccc2n1 [Example 603, N-[1-(2-Ethylimidazo[1,2-b]pyridazin-6-yl)azetidin-3-yl]-6-(3-fluorophenyl)nicotinamide] | 2.29
O=C(NC1CCN(Cc2nc3ccccc3n2CF)CC1)c1ccc(-c2cccc(F)c2)nc1 [Example 424] | 1.3
COc1ccc(CN2CCC(NC(=O)c3ccc(-c4cccc(F)c4)nc3)CC2)cc1 [Example 222, 6-(3-Fluorophenyl)-N-[1-(4-methoxybenzyl)piperidin-4-yl]nicotinamide] | 6.64
Cc1nc[nH]c1CN1CCC(NC(=O)c2ccc(-c3cccc(F)c3)nc2)CC1 [Example 296, 6-(3-Fluorophenyl)-N-{1-[(4-methyl-1H-imidazol-5-yl)methyl]piperidin-4-yl}nicotinamide] | 1.4

SMILES | IC50 [nM]
Cc1ccc(-c2cccc(CN3CCC(NC(=O)c4ccc(-c5cccc(F)c5)nc4)CC3)c2)c(N)n1 [Example 380, N-{1-[3-(2-Amino-6-methylpyridin-3-yl)benzyl]piperidin-4-yl}-6-(3-fluorophenyl)nicotinamide] | 1.25
Cc1nn(C)c(C)c1CN1CCC(NC(=O)c2ccc(-c3cccc(F)c3)nc2)CC1 [Example 250, 6-(3-Fluorophenyl)-N-{1-[(1,3-trimethyl-1H-pyrazol-4-yl)methyl]piperidin-4-yl}nicotinamide] | 0.409
CCn1ncc(CN2CCC(NC(=O)c3ccc(-c4cccc(F)c4)nc3)CC2)c1C [Example 329, N-{1-[(1-Ethyl-5-methyl-1H-pyrazol-4-yl)methyl]piperidin-4-yl}-6-(3-fluorophenyl)nicotinamide] | 1.94
Cn1cnc2c(N3CCC(NC(=O)c4ccc(-c5cccc(F)c5)nc4)CC3)ncnc21 [Example 125, 6-(3-Fluorophenyl)-N-[1-(9-methyl-9H-purin-6-yl)piperidin-4-yl]nicotinamide] | 0.176
O=C(NC1CCN(Cc2ccnn2CCc2ccccc2)CC1)c1ccc(-c2cccc(F)c2)nc1 [Example 395, 6-(3-Fluorophenyl)-N-(1-{[1-(2-phenylethyl)-1H-pyrazol-5-yl]methyl}piperidin-4-yl)nicotinamide] | 1.43
O=C(NC1CCN(Cc2c[nH]cn2)CC1)c1ccc(-c2cccc(F)c2)nc1 [Example 294, 6-(3-Fluorophenyl)-N-[1-(1H-imidazol-4-ylmethyl)piperidin-4-yl]nicotinamide] | 1.76
Cc1ccn2c(CN3CCC(NC(=O)c4ccc(-c5cccc(F)c5)nc4)CC3)c(C)nc2c1 [Example 383, N-{1-[(2,7-Dimethylimidazo[1,2,a]pyridin-3-yl)methyl]piperidin-4-yl}-6-(3-fluorophenyl)nicotinamide] | 1.25
COc1cccc(C(C)N2CCC(NC(=O)c3ccc(-c4cccc(F)c4)nc3)CC2)c1 (centres unmarked) [Example 532, 6-(3-Fluorophenyl)-N-{1-[1-(3-methoxyphenyl)ethyl]piperidin-4-yl}nicotinamide] | 1.3
Cn1nccc1CN1CCC(NC(=O)c2ccc(-c3cccc(F)c3)nc2)CC1 [Example 352, 6-(3-Fluorophenyl)-N-{1-[(1-methyl-1H-pyrazol-5-yl)methyl]piperidin-4-yl}nicotinamide] | 0.625
O=C(N[C@@H]1CN(c2nc3ccccc3o2)C[C@H]1O)c1ccc(-c2cccc(F)c2)nc1 (relative stereo) [Example 616, Trans-N-[1-(1,3-benzoxazol-2-yl)-4-hydroxypyrrolidin-3-yl]-6-(3-fluorophenyl)nicotinamide] | 5.12
CCCCc1nc(CN2CCC(NC(=O)c3ccc(-c4cccc(F)c4)nc3)CC2)c[nH]1 [Example 199, N-{1-[(2-Butyl-1H-imidazol-4-yl)methyl]piperidin-4-yl}-6-(3-fluorophenyl)nicotinamide] | 2.7
O=C(NC1CCN(c2ccc(C(=O)N3CCCC3)cn2)CC1)c1ccc(-c2cccc(F)c2)nc1 [Example 114, 6-(3-Fluorophenyl)-N-{1-[5-(pyrrolidin-1-ylcarbonyl)pyridin-2-yl]piperidin-4-yl}nicotinamide] | 2.3
Cc1cc(C)n2nc(CN3CCC(NC(=O)c4ccc(-c5cccc(F)c5)nc4)CC3)nc2n1 [Example 504, N-{1-[(5,7-Dimethyl[1,2,4]triazolo[1,5-a]pyrimidin-2-yl)methyl]piperidin-4-yl}-6-(3-fluorophenyl)nicotinamide] | 2.84
CC(C)(C)OC(=O)N1CC(NC(=O)c2ccc(-c3cccc(F)c3)nc2)C1 [Example 599] | 2.92
O=C(NC1CCN(CC2CCOCC2)CC1)c1ccc(-c2cccc(F)c2)nc1 [Example 593, 6-(3-Fluorophenyl)-N-[1-(tetrahydro-2H-pyran-4-ylmethyl)piperidin-4-yl]nicotinamide] | 2
COc1cccc(-c2ccc(C(=O)NC3CCN(C(C)C)CC3)cn2)c1 [Example 20, N-(1-Isopropylpiperidin-4-yl)-6-(3-methoxyphenyl)nicotinamide] | 1000
Cc1nn(C(C)(C)C)c(C)c1CN1CCC(NC(=O)c2ccc(-c3cccc(F)c3)nc2)CC1 [Example 209, N-{1-[(1-tert-Butyl-3,5-dimethyl-1H-pyrazol-4-yl)methyl]piperidin-4-yl}-6-(3-fluorophenyl)nicotinamide] | 1.37
O=C(NC1CCN(Cc2n[nH]c3ccccc23)CC1)c1ccc(-c2cccc(F)c2)nc1 [Example 513, 6-(3-Fluorophenyl)-N-[1-(1H-indazol-3-ylmethyl)piperidin-4-yl]nicotinamide] | 0.363
CCCN(C)C(=O)c1ccc(N2CCC(NC(=O)c3ccc(-c4cccc(F)c4)nc3)CC2)nc1 [Example 572, 6-[4-({[6-(3-Fluorophenyl)pyridin-3-yl]carbonyl}amino)piperidin-1-yl]-N-methyl-N-propylnicotinamide] | 5.25
O=C(NC1CCN(c2cnc3ccccc3n2)CC1)c1ccc(-c2cccc(F)c2)nc1 [Example 138, 6-(3-Fluorophenyl)-N-(1-quinoxalin-2-ylpiperidin-4-yl)nicotinamide] | 1.23

Reference: patent US7902373B2 (Pfizer Inc, priority 2006, dated 2011)
